Assay results taken from patent US12310929B2, “Use of rasagiline for the treatment of restless legs syndrome” (TEVA PHARMACEUTICAL INDUSTRIES, LTD., priority 2006, dated 2025).

Assays:
[1] = system: RLS; conditions: treatment of RLS; cited from earlier work
[2] = system: 6-hydroxydopamine lesioned rats; conditions: treated lesioned rats compared with untreated lesioned rats
Experimental: 6-hydroxydopamine is an agent that selectively disrupts or destroys catecholaminergic systems. Thus, stereotaxic bilateral 6-hydroxydopamine lesions into the nucleus of dopaminergic diencephalic spinal neurons (A11) are performed to effect behavior consistent, although not specific, with what would be expected in a rat model of RLS. (Ondo W. G. et al., Clinical Correlates of 6-Hydroxydopamine Injections into A11 Dopaminergic Neurons in Rats: A Possible Model for Restless Leg Syndrome, Mov. Disord., 2000, 15(1):154-8)

Compound | quality of sleep, frequency of waking up, periodic leg movement during sleep [1] | soporiferous latency [1] | number of standing episodes [2] | total standing time [2]
Clc1cccc(Cl)c1N=C1NCCN1 [Clonidine] | no effect | reduced |  | 
C#CCN[C@@H]1CCc2ccccc21.CS(=O)(=O)O [R(+)PAI mesylate, R(+)-N-propargyl-1-aminoindan mesylate] |  |  | fewer standing episodes | less total standing time
